Here are results for 12 compounds from PubChem BioAssay (NCI).

Common to all, as to test: NCI tumour cell line growth inhibition, 48 h
The subject of experiment [1] is T-47D breast.
Experiment [2] concerns MALME-3M melanoma.
Experiment [3] has as its system CAKI-1 renal.
The subject of experiment [4] is MOLT-4 leukemia.
For experiment [5], the system named is M14 melanoma.
In experiment [6] the test system is DU-145 prostate.
Experiment [7] concerns HS 578T breast.
Experiment [8] has as its system ACHN renal.
The test system of experiment [9] is SW-620 colon.
Experiment [10] deals with RXF 393 renal.
In experiment [11] the test system is KM12 colon.
Experiment [12] has as its system OVCAR-5 ovarian.
For experiment [13], the system named is CCRF-CEM leukemia.
The test system of experiment [14] is MCF7 breast.
Experiment [15] concerns OVCAR-8 ovarian.
Experiment [16] concerns SK-MEL-28 melanoma.
The test system of experiment [17] is BT-549 breast.
Experiment [18] has as its system HCC-2998 colon.
Experiment [19] relates to NCI-H226 lung.

Molecules are shown by their SMILES.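 Results reflect a 48-hour exposure of cells in 96-well plates to compound at five concentrations. TGI denotes the concentration required for complete inhibition of growth.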 Bounds are passed on as bounds.

As to `C=C(C(=O)OCC)C(=O)OCC`, the TGI in experiment [1], in experiment [2], in [3], in [4], in experiment [5] and in experiment [6] was more than 100 µM in each case. Further, the TGI in [7], in [8], in experiment [9], in experiment [10], in experiment [11] and in experiment [12] was more than 100 µM throughout. The TGI in experiment [13], in [14], in [15], in experiment [16], in [17] and in [18] was more than 100 µM each time. The same compound returned a TGI in experiment [19] of more than 100 µM.
In the case of `C/C(C[n+]1ccccc1)=N\N=C(N)N`, the TGI in [1], in [2], in experiment [3], in [4], in experiment [5] and in experiment [6] was more than 100 µM throughout. Besides, the TGI in experiment [7], in experiment [8], in experiment [9], in experiment [10], in experiment [11] and in [12] was more than 100 µM throughout. In addition, the TGI in [13], in [14], in experiment [15], in experiment [16], in experiment [17] and in experiment [18] was more than 100 µM in each case. Besides, the TGI in [19] was more than 100 µM.
Turning to `O=c1[nH][nH]c(=O)n1CCCCCCn1c(=O)[nH][nH]c1=O`, the TGI in experiment [1], in experiment [2], in experiment [3], in [4], in experiment [5] and in experiment [6] was more than 100 µM throughout. Also, the TGI in experiment [7], in experiment [9], in experiment [10], in experiment [11], in experiment [12] and in [13] was more than 100 µM each time. In addition, the TGI in [14], in [15], in experiment [16], in [17], in [18] and in experiment [19] was more than 100 µM throughout.
As for `Oc1cc(Cl)cc2cccnc12`, the TGI was 26.2 µM in [1]; 54.5 µM in experiment [2]; more than 100 µM in experiment [3]; 3.98 µM in [4]; more than 37.4 µM in experiment [5]; more than 89.7 µM in experiment [6]. The TGI is more than 48.5 µM in [7]; more than 91.6 µM in experiment [8]; 19.7 µM in experiment [9]; 42.9 µM in [10]; more than 100 µM in experiment [11]; more than 100 µM in experiment [12]. Also, the TGI was 1.95 µM in experiment [13]; 7.87 µM in experiment [14]; more than 100 µM in [15]; more than 100 µM in [16]; more than 91.1 µM in [17]; more than 70 µM in experiment [18]. Further, the TGI in experiment [19] stood at 69.6 µM.
For the compound `Cc1nc(C)c(N2CCN([N+](=O)[O-])CC2)c(=O)[nH]1`, the TGI in [1], in [2], in experiment [3], in [4], in [5] and in experiment [6] was more than 100 µM in each case. Also, the TGI in experiment [7], in experiment [8], in experiment [9], in experiment [10], in experiment [11] and in experiment [13] was more than 100 µM throughout. Also, the TGI in [14], in experiment [15], in experiment [16], in [17], in [18] and in experiment [19] was more than 100 µM each time.
For the compound `Cc1cc(/N=C/c2ccc(N(C)C)cc2)n(-c2ccccc2)n1`, the TGI in experiment [1] was 89.5 µM; in experiment [2] it was more than 100 µM; in experiment [3], more than 100 µM; in experiment [4] it was more than 100 µM; in [5] it was more than 100 µM; in experiment [6], more than 100 µM. In addition, the TGI in experiment [7], in [8], in experiment [9], in experiment [10], in experiment [11] and in [12] was more than 100 µM in each case. In addition, the TGI in experiment [13] is more than 100 µM; in [14], more than 100 µM; in experiment [15] it was more than 100 µM; in [16] it was more than 100 µM; in experiment [17], more than 100 µM; in experiment [18] it was 61.7 µM. The TGI in [19] is more than 100 µM.
`N[C@@H](Cc1ccccc1)C(=O)N1CCC[C@@H]1P(=O)(Oc1ccccc1)Oc1ccccc1`: the TGI in experiment [1], in [2], in experiment [3], in [4], in experiment [5] and in [6] was more than 100 µM throughout. Further, the TGI in experiment [7], in experiment [8], in experiment [9], in experiment [10], in experiment [11] and in experiment [12] was more than 100 µM each time. Also, the TGI in experiment [13], in [14], in experiment [15], in experiment [16], in experiment [17] and in experiment [18] was more than 100 µM in each case. The TGI in [19] was more than 100 µM.
Consider `CCOC(=O)c1cccc(N=Nc2nc[nH]c2/C=C/C(=O)OC)c1`, for which the TGI in [1] was more than 100 µM; in experiment [2] it was 71.8 µM; in experiment [3], more than 100 µM; in [4], 40.2 µM; in experiment [5], 49.6 µM; in [6] it was more than 100 µM. Moreover, the TGI in experiment [7], in experiment [8], in [9], in [10], in experiment [11] and in experiment [12] was more than 100 µM throughout. Also, the TGI in [13] is more than 100 µM; in experiment [14], more than 100 µM; in experiment [15] it was more than 100 µM; in experiment [16], more than 100 µM; in [17], more than 100 µM; in experiment [18], 28.2 µM. The compound further showed a TGI in experiment [19] of more than 100 µM.
As to `O=[N+]([O-])C(=C(Nc1cccc2cccnc12)Nc1cccc2cccnc12)C(Cl)=C(Cl)Cl`, the TGI in experiment [1] is more than 100 µM; in experiment [2], more than 100 µM; in [3], more than 92.2 µM; in experiment [4], more than 100 µM; in experiment [5] it was more than 100 µM; in [6], more than 100 µM. The TGI was more than 100 µM in experiment [7]; more than 51.1 µM in experiment [8]; more than 100 µM in [9]; more than 100 µM in experiment [10]; more than 100 µM in experiment [11]; more than 100 µM in [12]. Besides, the TGI in experiment [13] was more than 100 µM; in [14] it was 54.8 µM; in experiment [15], more than 100 µM; in [16] it was more than 100 µM; in [17], more than 100 µM; in experiment [18], more than 100 µM. The same compound had a TGI in [19] of more than 100 µM.
Regarding `CC1(C)OC[C@@H](O)[C@H](C#N)CO1`, the TGI in [1], in [2], in [3], in [4], in experiment [5] and in [6] was more than 100 µM throughout. Further, the TGI in experiment [7], in [8], in experiment [9], in experiment [10], in experiment [11] and in experiment [12] was more than 100 µM in each case. Further, the TGI in experiment [13], in [14], in experiment [15], in experiment [16], in experiment [17] and in [18] was more than 100 µM in each case. In experiment [19], this compound registered a TGI of more than 100 µM.
Regarding `O=S(=O)(O)C(CO)c1ccccc1` (stereo not given) (tested in a mixture with another compound), the TGI in [1], in experiment [2], in [3], in experiment [4], in experiment [5] and in [6] was more than 100 µM throughout. Also, the TGI in experiment [7], in [8], in [9], in [10], in experiment [11] and in experiment [12] was more than 100 µM in each case. Further, the TGI in experiment [13], in [14], in [15], in experiment [16], in experiment [17] and in experiment [18] was more than 100 µM in each case. Also, the TGI in experiment [19] is more than 100 µM.
Consider `Cc1ccc(C2=CC(=O)OC(C[P+](c3ccccc3)(c3ccccc3)c3ccccc3)(c3ccccc3)O2)cc1` (stereo not given), for which the TGI was found to be 41.1 µM in [1]; 30.5 µM in experiment [2]; 29.3 µM in [3]; 67 µM in experiment [4]; 32 µM in experiment [5]; 30.3 µM in experiment [6]. In addition, the TGI stood at 42.6 µM in experiment [7]; 39.8 µM in experiment [8]; 73.2 µM in experiment [10]; 34.3 µM in [11]; 42.7 µM in [12]; 99.4 µM in experiment [13]. Further, the TGI was 56.6 µM in experiment [14]; 51.1 µM in experiment [15]; 33.5 µM in experiment [16]; 49.2 µM in experiment [17]; 38.2 µM in experiment [18]; 60.4 µM in experiment [19].
